Article PMC5065788 (Bioorganic & medicinal chemistry, 2016)
Where two headings read alike, the source gives them in different places. One block for each compound: values may come before it.

Columns and labels:
[1] = target: T1, recombinant human aromatase (CYP19) (Homo sapiens, UniProt P11511); assay: Inhibition of recombinant human aromatase; format: biochemical; conditions: ratio of IC50 values vs 13 (24880 nM)
T1 sequence (P11511 1-503): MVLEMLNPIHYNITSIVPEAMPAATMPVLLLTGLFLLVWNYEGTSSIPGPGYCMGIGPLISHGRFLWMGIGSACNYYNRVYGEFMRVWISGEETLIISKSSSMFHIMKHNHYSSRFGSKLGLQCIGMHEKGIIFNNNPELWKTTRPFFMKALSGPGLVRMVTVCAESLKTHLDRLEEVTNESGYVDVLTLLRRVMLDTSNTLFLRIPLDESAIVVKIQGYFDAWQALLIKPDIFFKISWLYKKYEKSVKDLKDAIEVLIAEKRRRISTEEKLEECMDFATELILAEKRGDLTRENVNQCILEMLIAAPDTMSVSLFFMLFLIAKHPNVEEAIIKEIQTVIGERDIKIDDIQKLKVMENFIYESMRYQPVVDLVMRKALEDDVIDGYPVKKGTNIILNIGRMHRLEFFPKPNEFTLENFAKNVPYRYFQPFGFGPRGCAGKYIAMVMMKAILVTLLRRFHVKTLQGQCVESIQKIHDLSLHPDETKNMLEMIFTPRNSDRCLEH

[2] = target: T2, recombinant human ER-α (Homo sapiens, UniProt P03372); conditions: at 100 μM; previously reported compounds included for comparison; cited from earlier work
T2 sequence (P03372 1-595): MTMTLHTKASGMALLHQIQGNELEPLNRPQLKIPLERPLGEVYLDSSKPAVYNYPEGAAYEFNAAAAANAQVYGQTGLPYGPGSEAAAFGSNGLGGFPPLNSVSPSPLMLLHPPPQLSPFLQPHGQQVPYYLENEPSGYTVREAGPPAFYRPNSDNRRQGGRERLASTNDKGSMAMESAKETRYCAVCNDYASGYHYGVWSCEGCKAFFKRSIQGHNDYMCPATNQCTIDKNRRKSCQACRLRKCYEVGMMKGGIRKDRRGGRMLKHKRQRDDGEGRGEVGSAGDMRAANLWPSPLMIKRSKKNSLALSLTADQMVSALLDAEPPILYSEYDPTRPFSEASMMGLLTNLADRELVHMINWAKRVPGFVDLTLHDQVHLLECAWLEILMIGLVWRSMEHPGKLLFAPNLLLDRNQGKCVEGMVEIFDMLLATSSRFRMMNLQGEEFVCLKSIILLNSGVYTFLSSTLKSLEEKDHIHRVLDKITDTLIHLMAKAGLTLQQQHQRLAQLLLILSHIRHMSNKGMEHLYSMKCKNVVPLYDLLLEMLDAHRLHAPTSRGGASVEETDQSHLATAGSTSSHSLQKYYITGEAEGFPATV

[3] = target: T2, recombinant human ER-α; assay: Binding affinity for recombinant human ER-α; conditions: at 100 μM (100000 nM)
[4] = target: T3, recombinant human ER-β (Homo sapiens, UniProt Q92731); assay: Binding affinity for recombinant human ER-β; conditions: at 100 μM (100000 nM)
[5] = test system: progesterone receptor (PGR) mRNA expression in MCF-7 cells; assay: Antagonism of β-estradiol-stimulated progesterone receptor; format: cell-based, human; conditions: 1 μM compound in the presence of 10 nM β-estradiol, 24 hours
[6] = target: T3, recombinant human ER-β; conditions: at 100 μM; previously reported compounds included for comparison; cited from earlier work

T3 sequence (Q92731 whole entry): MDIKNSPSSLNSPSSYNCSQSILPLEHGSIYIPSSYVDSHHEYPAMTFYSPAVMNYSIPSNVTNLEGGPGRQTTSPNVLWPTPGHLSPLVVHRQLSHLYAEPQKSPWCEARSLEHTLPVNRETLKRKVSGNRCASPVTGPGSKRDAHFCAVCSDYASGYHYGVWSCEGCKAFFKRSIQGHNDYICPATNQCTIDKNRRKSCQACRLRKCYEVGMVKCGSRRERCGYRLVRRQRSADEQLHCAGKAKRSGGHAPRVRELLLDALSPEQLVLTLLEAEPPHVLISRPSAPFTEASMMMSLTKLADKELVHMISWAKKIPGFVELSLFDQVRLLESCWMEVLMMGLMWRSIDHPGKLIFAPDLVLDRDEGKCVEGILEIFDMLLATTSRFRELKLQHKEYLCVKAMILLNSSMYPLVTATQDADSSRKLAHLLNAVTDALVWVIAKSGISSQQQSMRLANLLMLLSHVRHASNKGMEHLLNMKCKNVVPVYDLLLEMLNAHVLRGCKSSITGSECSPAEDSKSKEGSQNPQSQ

SMILES: CC(=C(c1ccc(N)cc1)c1ccc(N)cc1)c1ccc([N+](=O)[O-])cc1 [Compound 12c, 4-(1-(4-Aminophenyl)-2-(4-nitrophenyl)prop-1-enyl)benzenamine]
times more potent than 13 against aromatase [1]: 113 times

SMILES: CCC(=C(c1ccc(N)cc1)c1ccc(N)cc1)c1ccc([N+](=O)[O-])cc1 [Compound 12d, 4-(1-(4-Aminophenyl)-2-(4-nitrophenyl)but-1-enyl)benzenamine]
times more potent than 13 against aromatase [1]: 400 times

SMILES: CCC(=C(c1ccc(O)cc1)c1ccc(O)cc1)c1ccccc1 [Compound 13, 4-(1-(4-Hydroxyphenyl)-2-phenylbut-1-enyl)phenol]
ER-α percent competition [2]: 80% competition at 100 μM

SMILES: CCC(=C(c1ccc(N)cc1)c1ccc(NCC(N)=O)cc1)c1ccc([N+](=O)[O-])cc1 [Compound 16d, (E,Z)-2-(4-(1-(4-Aminophenyl)-2-(4-nitrophenyl)but-1-enyl)phenylamino)acetamide]
PGR mRNA expression level relative to estradiol (100%) [5]: 19.6%

SMILES: CC/C(=C(/c1ccc(O)cc1)c1ccc(OCC(N)=O)cc1)c1ccccc1 [Compound 17, (E,Z)-2-(4-(1-(4-Hydroxyphenyl)-2-phenylbut-1-enyl)phenoxy)-acetamide]
ER-α percent competition [2]: 57% competition at 100 μM | ER-β percent competition [6]: 71% competition at 100 μM

Results, then the compound that gave them:

ER-α percent competition [3]: 0% competition at 100 μM | ER-β percent competition [4]: 0% competition at 100 μM
SMILES: CC(=C(c1ccc(O)cc1)c1ccc(OCC(N)=O)cc1)c1ccc([N+](=O)[O-])cc1 [Compound 16a, (E,Z)-2-(4-(1-(4-Hydroxyphenyl)-2-(4-nitrophenyl)prop-1-enyl)phenoxy)-acetamide]

ER-α percent competition [3]: 0% competition at 100 μM | ER-β percent competition [4]: 0% competition at 100 μM
SMILES: CCC(=C(c1ccc(O)cc1)c1ccc(OCC(N)=O)cc1)c1ccc([N+](=O)[O-])cc1 [Compound 16b, (E,Z)-2-(4-(1-(4-Hydroxyphenyl)-2-(4-nitrophenyl)but-1-enyl)phenoxy)-acetamide]
